Reference: patent publication US20230118955A1 (priority 2020, published 2023)
Marks after values point to notes of the source that are not given here.

How the values were obtained:
[1] = tested on: 3CLpro protease; assay type: biochemical, SARS-CoV
[2] = tested on: SARS-CoV-1; assay type: cell-based
[3] = tested on: SARS-CoV-2; assay type: cell-based
[4] = tested on: recombinant human furin; assay: Furin cleavage of Site S1 peptide (Peptide 1, Acetyl-SPRRAR-pNA) after incubation with MGO; assay type: biochemical; details: 8 mM MGO, 400 μM peptide 1, 5 nM furin
[5] = tested on: trypsin; assay: Trypsin (surrogate for TMPRSS2) cleavage of Site S2' peptide (Peptide 2, Acetyl-SKPSKR-pNA) after incubation with MGO; assay type: biochemical; details: 8 mM MGO, 400 μM peptide 2, 5 nM trypsin

SMILES | inhibition of 3CLpro protease activity (cleavage of pNA substrate) [1] | further results
O=C(O)C(O)Cc1ccccc1 (stereo not drawn) [3-phenyllactic acid] | inhibit activity of 3CLpro protease | –
CCO [EtOH, ethanol] | – | LRV (log10 reduction of virus compared to the virus control) [2]: 2.8 log10; Virus (CCID50/0.1 mL) [2]: 1.5 ± 0.2 CCID50/0.1 mL; LRV (log10 reduction of virus compared to the virus control) [3]: 3.9 log10; Virus (CCID50/0.1 mL) [3]: <0.7**** CCID50/0.1 mL
CC(=O)C=O [MGO, methylglyoxal] | – | reduction in pNA liberated (activation of peptide 1 by furin) ([4]; incubation 3 h): 97%; reduction in pNA liberated (activation of peptide 1 by furin) ([4]; incubation 4 h): 97%; reduction in pNA liberated (activation of peptide 1 by furin) ([4]; incubation time 0): 90%; reduction in pNA liberated (activation of peptide 2 by trypsin) ([5]; incubation 4 h): 88%; reduction in pNA liberated (activation of peptide 2 by trypsin) ([5]; incubation time 0): 21%
O=c1c(O)c(-c2ccccc2)oc2cc(O)cc(O)c12 [galangin] | inhibit activity of 3CLpro protease | –
COc1ccc([C@@H]2CC(=O)c3c(O)cc(O[C@@H]4O[C@H](CO[C@@H]5O[C@@H](C)[C@H](O)[C@@H](O)[C@H]5O)[C@@H](O)[C@H](O)[C@H]4O)cc3O2)cc1O [hesperidin] | inhibit activity of 3CLpro protease | –
O=c1c(O)c(-c2ccc(O)cc2)oc2cc(O)cc(O)c12 [kaempferol] | inhibit activity of 3CLpro protease | –
O=c1cc(-c2ccc(O)c(O)c2)oc2cc(O)cc(O)c12 [luteolin] | inhibit activity of 3CLpro protease | –
O=C(O)/C=C/c1ccc(O)cc1 [p-coumaric acid] | inhibit activity of 3CLpro protease | –
O=C1c2c(O)cc(O)cc2O[C@H](c2ccccc2)[C@H]1O [pinobanksin] | inhibit activity of 3CLpro protease | –
O=C1C[C@@H](c2ccccc2)Oc2cc(O)cc(O)c21 [pinocembrin] | inhibit activity of 3CLpro protease | –
O=c1c(O)c(-c2ccc(O)c(O)c2)oc2cc(O)cc(O)c12 [quercetin] | inhibit activity of 3CLpro protease | –
